According to patent publication US11492359B2, “Near-infrared nerve-sparing fluorophores” (OREGON HEALTH & SCIENCE UNIVERSITY, priority 2018, dated 2022):

Test: UV-Vis absorption and fluorescence spectroscopy of the Oxazine library
Assay type: physicochemical
Settings: for Extinction coefficient: Beer's Law plots; for Quantum yield: relative, references Oxazine 1, Oxazine 170, Rhodamine 101
Protocol: All reagents were purchased from Sigma Aldrich, Fisher Scientific, TCI, or Ark Pharm. Unless otherwise indicated, all commercially available starting materials were used directly without further purification. Analytical thin layer chromatography (TLC) was performed on Millipore ready-to-use plates with silica gel 60 (F254, 32-63 μm). Flash chromatography was performed on Sorbent Technologies silica gel for column chromatography or on a Biotage Isolera Flash System using SNAP Ultra cartridges. High-resolution mass spectra (HRMS) were measured on a ThermoElectron LTQ-Orbitrap high resolution mass spectrometer with a dedicated Accela HPLC system, or an Agilent 6244 time-of-flight LCMS with diode array detector VL+. LCMS and Purity Characterization Mass-to-charge ratio and purity of the Oxazine compounds were characterized on an Agilent 6244 time-of-flight tandem liquid chromatography mass spectroscopy (LCMS) with diode array detector VL+. Sample (10 μL) was injected into a C18 column (Poroshell 120, 4.6×50 mm, 2.7 micron), and eluted with a solvent system of A (H2O, 0.1% FA) and B (MeCN, 01.% FA) at 0.4 mL/min, from A/B=90/10 to 5/95 over 10 min, maintained at A/B=5/95 for additional 5 min. Ions were detected in positive ion mode by setting the capillary voltage at 4 kV and gas temperature at 350° C. Purity was calculated through area under the curve analysis of the absorbance at 254 nm. UV-Vis Absorption and Fluorescence Spectroscopy. UV-Vis spectra were collected with a Cary 50 UV-Vis spectrophotometer at room temperature, using a 1-cm quartz cuvette. Fluorescence spectra were collected on a Cary Eclipse fluorescence spectrophotometer (Agilent Technologies). All absorbance spectra were reference corrected. Extinction coefficient was calculated from Beer's Law plots of absorbance versus concentration. Fluorescence spectra were corrected for the wavelength dependent response of the R928 photomultiplier tube using a manufacturer generated correction file. Relative quantum yields are reported as the average of multiple measurements using multiple references, including Oxazine 1, Oxazine 170, and Rhodamine 101. Physicochemical Property Calculation. Physicochemical partition coefficients (Log D) values at pH 7.4, number of hydrogen bond donors and acceptors, polar surface area, and the number of rotatable bonds were calculated using Marvin and JChem calculator plugins (ChemAxon, Budapest, Hungary). Nerve-Specificity Screening using Direct/Topical Administration Each compound was screened for its tissue-specificity using a previously published direct/topical administration strategy in murine brachial plexus and sciatic nerves.^1 Each compound from the Oxazine library was formulated in the previously utilized co-solvent formulation (10% DMSO, 5% Kolliphor, 65% serum and 20% phosphate buffered saline) at 125 μM. 100 μL of the formulated Oxazine were incubated on the exposed brachial plexus or sciatic nerve for 5 minutes. The fluorophore containing solution was removed and the area was irrigated with saline 18 times to remove any unbound fluorophore. Co-registered fluorescence and color images were collected of each stained area 30 minutes after Oxazine direct/topical administration using a custom built macroscopic imaging system with 620/60 nm excitation and 700/75 nm bandpass emission filters. Custom written MatLab code was used to analyze the tissue specific fluorescence where regions of interest were selected on the nerve, muscle and adipose tissue using the white light images. These regions of interest were then analyzed on the co-registered matched fluorescence images permitting assessment of the nerve to muscle and nerve to adipose ratios in blinded manner. […]

CC/N=c1/cc2oc3cc(NCC)ccc3nc-2cc1C [LGW01-18, (Z)—N-(7-(ethylamino)-2-methyl-3H-phenoxazin-3-ylidene)ethanaminium]
Max Abs: 617 nm | Max Em: 636 nm | Max Ex: 620 nm | Extinction coefficient: 60731 M⁻¹ cm⁻¹ | Quantum yield: 32.91%

CCNc1ccc2nc3ccc(=[N+](CC)CC)cc-3oc2c1 [LGW01-25, N-ethyl-N-(7-(ethylamino)-3H-phenoxazin-3-ylidene)ethanaminium]
Max Abs: 635 nm | Max Em: 660 nm | Max Ex: 640 nm | Extinction coefficient: 41771 M⁻¹ cm⁻¹ | Quantum yield: 3.31%

C/N=c1/cc2oc3cc(NC)c(C)cc3nc-2cc1C [LGW01-61, (Z)—N-(2,8-dimethyl-7-(methylamino)-3H-phenoxazin-3-ylidene)methanaminium]
Max Abs: 612 nm | Max Em: 631 nm | Max Ex: 610 nm | Extinction coefficient: 21783 M⁻¹ cm⁻¹ | Quantum yield: 40.27%

CC/N=c1\ccc2nc3ccc(NCC)c(C)c3oc-2c1C [LGW02-57, (E)-N-(7-(ethylamino)-4,6-dimethyl-3H-phenoxazin-3-ylidene)ethanaminium]
Max Abs: 635 nm | Max Em: 653 nm | Max Ex: 635 nm | Extinction coefficient: 56713 M⁻¹ cm⁻¹ | Quantum yield: 11.15%

CC/N=c1/cc2oc3c(C)c(NCC)ccc3nc-2cc1C [LGW02-58, (Z)—N-(7-(ethylamino)-2,6-dimethyl-3H-phenoxazin-3-ylidene)ethanaminium]
Max Abs: 620 nm | Max Em: 635 nm | Max Ex: 620 nm | Extinction coefficient: 42685 M⁻¹ cm⁻¹ | Quantum yield: 25.26%

CC/N=c1/cc2oc3cc(NCC)cc(C)c3nc-2cc1C [LGW02-59, (Z)—N-(7-(ethylamino)-2,9-dimethyl-3H-phenoxazin-3-ylidene)ethanaminium]
Max Abs: 611 nm | Max Em: 636 nm | Max Ex: 615 nm | Extinction coefficient: 41229 M⁻¹ cm⁻¹ | Quantum yield: 31.74%

CCNc1ccc2nc3ccc(=[N+](CC)CC)cc-3oc2c1C [LGW02-60, N-ethyl-N-(7-(ethylamino)-6-methyl-3H-phenoxazin-3-ylidene)ethanaminium]
Max Abs: 645 nm | Max Em: 661 nm | Max Ex: 650 nm | Extinction coefficient: 65369 M⁻¹ cm⁻¹ | Quantum yield: 8.98%

CCNc1cc(C)c2nc3ccc(=[N+](CC)CC)cc-3oc2c1 [LGW02-61, N-ethyl-N-(7-(ethylamino)-9-methyl-3H-phenoxazin-3-ylidene)ethanaminium]
Max Abs: 630 nm | Max Em: 658 nm | Max Ex: 635 nm | Extinction coefficient: 68548 M⁻¹ cm⁻¹ | Quantum yield: 6.12%

CC[N+](CC)=c1ccc2nc3cc4c5c(c3oc-2c1)CCCN5CCC4 [LGW02-86, N-ethyl-N-(2,3,6,7-tetrahydro-1H,5H,12H-quinolizino[1,9-bc]phenoxazin-12-ylidene)ethanaminium]
Max Abs: 661 nm | Max Em: 680 nm | Max Ex: 665 nm | Extinction coefficient: 39472 M⁻¹ cm⁻¹ | Quantum yield: 13.18%

c1c2c3c(c4c1N=c1cc5c6c(c1O4)CCC[N+]=6CCC5)CCCN3CCC2 [LGW02-87, 2,3,6,7,12,13,16,17-octahydro-1H,5H,11H,15H-diquinolizino[1,9-bc:1′,9′-hi]phenoxazin-4-ium]
Max Abs: 678 nm | Max Em: 690 nm | Max Ex: 680 nm | Extinction coefficient: 59937 M⁻¹ cm⁻¹ | Quantum yield: 15.03%

CC/N=c1/cc2oc3cc4c(cc3nc-2cc1C)CCCN4CC [LGW02-91, (Z)—N-(1-ethyl-8-methyl-1,2,3,4-tetrahydro-9H-pyrido[3,2-b]phenoxazin-9-ylidene)ethanaminium]
Max Abs: 640 nm | Max Em: 657 nm | Max Ex: 645 nm | Extinction coefficient: 59971 M⁻¹ cm⁻¹ | Quantum yield: 23.58%

CCN1CCCc2cc3nc4ccc(=[N+](CC)CC)cc-4oc3cc21 [LGW02-92, N-ethyl-N-(1-ethyl-1,2,3,4-tetrahydro-9H-pyrido[3,2-b]phenoxazin-9-ylidene)ethanaminium]
Max Abs: 656 nm | Max Em: 673 nm | Max Ex: 660 nm | Extinction coefficient: 43659 M⁻¹ cm⁻¹ | Quantum yield: 9.27%

CCN1CCCc2cc3c(cc21)Oc1cc2c(cc1=N3)CCC[N+]=2CC [LGW02-99, 1,11-diethyl-3,4,8,9,10,11-hexahydro-2H-dipyrido[3,2-b:2′,3′-i]phenoxazin-1-ium]
Max Abs: 640 nm | Max Em: 675 nm | Max Ex: 665 nm | Extinction coefficient: 59971 M⁻¹ cm⁻¹ | Quantum yield: 24.67%

CC/N=c1/cc2oc3cc(N4CCCC4)ccc3nc-2cc1C [LGW03-06, (Z)—N-(2-methyl-7-(pyrrolidin-1-yl)-3H-phenoxazin-3-ylidene)ethanaminium]
Max Abs: 640 nm | Max Em: 661 nm | Max Ex: 640 nm | Extinction coefficient: 35942 M⁻¹ cm⁻¹ | Quantum yield: 11.94%

CC/N=c1/cc2oc3cc4c(cc3nc-2cc1C)CCCN4 [LGW03-12, (Z)—N-(8-methyl-1,2,3,4-tetrahydro-9H-pyrido[3,2-b]phenoxazin-9-ylidene)ethanaminium]
Max Abs: 624 nm | Max Em: 638 nm | Max Ex: 630 nm | Extinction coefficient: 40041 M⁻¹ cm⁻¹ | Quantum yield: 27.22%

CC[N+](CC)=c1ccc2nc3cc4c(cc3oc-2c1)NCCC4 [LGW03-13, N-ethyl-N-(1,2,3,4-tetrahydro-9H-pyrido[3,2-b]phenoxazin-9-ylidene)ethanaminium]
Max Abs: 641 nm | Max Em: 659 nm | Max Ex: 645 nm | Extinction coefficient: 64045 M⁻¹ cm⁻¹ | Quantum yield: 6.49%

CC[N+](CC)=c1ccc2nc3ccc(N4CCCCC4)cc3oc-2c1 [LGW03-18, N-ethyl-N-(7-(piperidin-1-yl)-3H-phenoxazin-3-ylidene)ethanaminium]
Max Abs: 661 nm | Max Em: 680 nm | Max Ex: 665 nm | Extinction coefficient: 66206 M⁻¹ cm⁻¹ | Quantum yield: 3.49%

CC/N=c1/cc2oc3cc(N4CCCCC4)ccc3nc-2cc1C [LGW03-21, (Z)—N-(2-methyl-7-(piperidin-1-yl)-3H-phenoxazin-3-ylidene)ethanaminium]
Max Abs: 642 nm | Max Em: 661 nm | Max Ex: 640 nm | Extinction coefficient: 36049 M⁻¹ cm⁻¹ | Quantum yield: 2.25%

c1cc2nc3ccc(=[N+]4CCCC4)cc-3oc2cc1N1CCCC1 [LGW03-31, 1-(7-(pyrrolidin-1-yl)-3H-phenoxazin-3-ylidene)pyrrolidin-1-ium]
Max Abs: 655 nm | Max Em: 674 nm | Max Ex: 655 nm | Extinction coefficient: 48226 M⁻¹ cm⁻¹ | Quantum yield: 15.78%

c1c2c(cc3c1N=c1cc4c(cc1O3)=NCCC4)NCCC2 [LGW03-32, 3,4,8,9,10,11-hexahydro-2H-dipyrido[3,2-b:2′,3′-i]phenoxazin-1-ium]
Max Abs: 631 nm | Max Em: 644 nm | Max Ex: 630 nm | Extinction coefficient: 45650 M⁻¹ cm⁻¹ | Quantum yield: 29.92%

CC/N=c1/cc2oc3cc4c(cc3nc-2cc1C)OCCN4 [LGW03-41, (Z)—N-(9-methyl-3,4-dihydro-[1,4]oxazino[2,3-b]phenoxazin-8(2H)-ylidene)ethanaminium]
Max Abs: 607 nm | Max Em: 641 nm | Max Ex: 625 nm | Extinction coefficient: 19729 M⁻¹ cm⁻¹ | Quantum yield: 25.80%

CCN1c2cc3oc4cc(=[N+](CC)CC)ccc-4nc3cc2C(C)=CC1(C)C [LGW03-52, N-ethyl-N-(1-ethyl-2,2,4-trimethyl-1,2-dihydro-9H-pyrido[3,2-b]phenoxazin-9-ylidene)ethanaminium]
Max Abs: 678 nm | Max Em: 699 nm | Max Ex: 680 nm | Extinction coefficient: 38039 M⁻¹ cm⁻¹ | Quantum yield: 6.82%
